The target of the first assay is LC3B (Homo sapiens, UniProt Q9GZQ8). The experiment in a line: Fluorescence Polarization (FP) Assay: displacement of FITC-labeled peptide from GST-LC3B. In kind it is binding.
Details: not given
On the procedure: The compounds of the present invention for regulating the autophagy-related protein LC3B were tested by Fluorescence Polarization (FP) Assay.
Fluorescence Polarization (FP) Assay Test
Background: In fluorescence polarisation assays a small probe gives low polarisation when free and higher when bound to something large.
As a reminder, the IC50 is the concentration needed to halve the response being measured. Compound `CN(C)CCNC=C1C(=O)CC(c2cccc(Cl)c2F)CC1=O` (stereo not shown) [Compound 384, 5-(3-chloro-2-fluorophenyl)-2-(((2-(dimethylamino)ethyl)amino)methylene) cyclohexane-1,3-dione] yielded an IC50 of less than 3 µM.
Still for that read-out and setting: the figure for `COc1ccc(C2CC(=O)C(=CNCCN(C)C)C(=O)C2)c(F)c1F` (stereo not shown) [Compound 403, 5-(2,3-difluoro-4-methoxyphenyl)-2-(((2-(dimethylamino)ethyl)amino)methylene) cyclohexane-1,3-dione] is less than 3 µM; for `CN(C)CCNC=C1C(=O)CC(c2cccc(F)c2Cl)CC1=O` (stereo not shown) [Compound 410] it is less than 3 µM.

Still in this assay, the particulars now being: Fluorescence Polarization assay; GST-LC3B 180 nM, FITC-labeled peptide 18 nM, 25° C.; read-out: IC50.
`CN(C)CCNC=C1C(=O)CC(c2ccc(-c3ccccc3)s2)CC1=O` (stereo not shown) [Compound 367, 2-(((2-(dimethylamino)ethyl)amino)methylene)-5-(5-phenylthiophen-2-yl)cyclohexane-1,3-dione]: the IC50 is less than 3 µM.
Same read-out and setting: in the case of `CN(C)CCNC=C1C(=O)CC(c2ccc(F)cc2Cl)CC1=O` (stereo not shown) [Compound 370, 5-(2-chloro-4-fluorophenyl)-2-(((2-(dimethylamino)ethyl)amino)methylene) cyclohexane-1,3-dione] it was less than 3 µM.
With `CN(C)CCNC=C1C(=O)CC(c2cscc2-c2ccccc2)CC1=O` (stereo not shown) [Compound 371, 2-(((2-(dimethylamino)ethyl)amino)methylene)-5-(4-phenylthiophen-3-yl)cyclohexane-1,3-dione], the IC50 is less than 3 µM.
On the same count and under the same terms, in the case of `Cc1ccc(NC(=O)CN2CCN(CCNC=C3C(=O)CC(c4ccccc4Br)CC3=O)CC2)cc1` (stereo not shown) [Compound 372, 2-(4-(2-(((4-(2-bromophenyl)-2,6-dioxocyclo-hexylidene)methyl)amino)ethyl)piperazin-1-yl)-N-(p-tolyl) acetainide] it was less than 3 µM; in that of `CNc1cccc(C2CC(=O)C(=CNCCN3CCN(CCO)CC3)C(=O)C2)c1Br` (stereo not shown) [Compound 374, 5-(2-bromo-3-(methylamino)phenyl)-2-(((2-(4-(2-hydroxyethyl)piperazin-1-yl)ethyl)amino)methylene) cyclohexane-1,3-dione], less than 3 µM.
As to `O=C1CC(c2c[nH]c3cccc(Br)c23)CC(=O)C1=CNCCN1CCN(CCO)CC1` (stereo not shown) [Compound 375, 5-(4-bromo-1H-indol-3-yl)-2-(((2-(4-(2-hydroxyethyl)piperazin-1-yl)ethyl)amino)methylene) cyclohexane-1,3-dione], the IC50 was less than 3 µM.
With `CN(C)CCNC=C1C(=O)CC(c2cc(C(F)(F)F)ccc2F)CC1=O` (stereo not shown) [Compound 376, 2-(((2-(dimethylamino)ethyl)amino)methylene)-5-(2-fluoro-5-(trifluoromethyl)phenyl) cyclohexane-1,3-dione], the half-maximal inhibitory concentration (IC50) was less than 3 µM.
Still for that read-out and setting: in the case of `CN(C)CCNC=C1C(=O)CC(c2c(C(F)(F)F)ccc(Cl)c2Cl)CC1=O` (stereo not shown) [Compound 377, 5-(2,3-dichloro-6-(trifluoromethyl)phenyl)-2-(((2-(dimethylamino)ethyl)amino)methylene) cyclohexane-1,3-dione] it was less than 3 µM.
The same measure, in the same setting: in the case of `CN(C)CCNC=C1C(=O)CC(c2c(C(F)(F)F)ccc(Cl)c2F)CC1=O` (stereo not shown) [Compound 378, 5-(3-chloro-2-fluoro-6-(trifluoromethyl)phenyl)-2-(((2-(dimethylamino)ethyl)amino)methylene) cyclohexane-1,3-dione] it was less than 3 µM; in that of `COc1cc(Br)c(C2CC(=O)C(=CNCCN(C)C)C(=O)C2)cc1OC` (stereo not shown) [Compound 379, 5-(2-bromo-4,5-dimethoxyphenyl)-2-(((2-(dimethylamino)ethyl)amino)methylene) cyclohexane-1,3-dione], less than 3 µM; in that of `Cc1ccc(NC(=O)C2CC(=O)C(=CNCCN(C)C)C(=O)C2)cc1F` (stereo not shown) [Compound 380, 4-(((2-(dimethylamino)ethyl)amino)methylene)-N-(3-fluoro-4-methylphenyl)-3,5-dioxocyclohexane-1-carboxamide], 3 to 15 µM.
Take `CN(C)CCNC=C1C(=O)CC(c2cc(C(F)(F)F)ccc2Cl)CC1=O` (stereo not shown) [Compound 381, 5-(2-chloro-5-(trifluoromethyl)phenyl)-2-(((2-(dimethylamino)ethyl)amino)methylene) cyclohexane-1,3-dione]: the IC50 was less than 3 µM.
On the same count and under the same terms, in the case of `CN(C)CCNC=C1C(=O)CC(c2ccc(Cl)cc2F)CC1=O` (stereo not shown) [Compound 382, 5-(4-chloro-2-fluorophenyl)-2-(((2-(dimethylamino)ethyl)amino)methylene) cyclohexane-1,3-dione] it was less than 3 µM; in that of `CN(C)CCNC=C1C(=O)CC(c2c(F)cccc2F)CC1=O` (stereo not shown) [Compound 383, 5-(2,6-difluorophenyl)-2-(((2-(dimethylamino)ethyl)amino)methylene) cyclohexane-1,3-dione], less than 3 µM; in that of `CN(C)CCNC=C1C(=O)CC(c2ccccc2N)CC1=O` (stereo not shown) [Compound 386, 5-(2-aminophenyl)-2-(((2-(dimethylamino)ethyl)amino)methylene) cyclohexane-1,3-dione], less than 3 µM.
As to `O=C1CC(c2cccc(F)c2F)CC(=O)C1=CNCCN1CCN(CCO)CC1` (stereo not shown) [Compound 387, 5-(2,3-difluorophenyl)-2-(((2-(4-(2-ethoxyl)piperazin-1-yl)ethyl)amino)methylene) cyclohexane-1,3-dione], the IC50 was less than 3 µM.
As to `CN(C)CCNC=C1C(=O)CC(c2cscc2Br)CC1=O` (stereo not shown) [Compound 388, 5-(4-bromothiophen-3-yl)-2-(((2-(dimethylamino)ethyl)amino)methylene) cyclohexane-1,3-dione], the half-maximal inhibitory concentration (IC50) was less than 3 µM.
On the same count and under the same terms, the figure for `CN(C)CCNC=C1C(=O)CC(C(=O)Nc2ccc(-c3ccccc3)cc2)CC1=O` (stereo not shown) [Compound 389] is less than 3 µM.
Still for that read-out and setting: in the case of `CN(C)CCNC=C1C(=O)CC(c2cc(Cl)ccc2F)CC1=O` (stereo not shown) [Compound 390, 5-(5-chloro-2-fluorophenyl)-2-(((2-(dimethylamino)ethyl)amino)methylene) cyclohexane-1,3-dione] it was less than 3 µM; in that of `O=C1CC(C(O)c2ccccc2)C(=O)/C1=C\NCCN1CCN(CCO)CC1` (stereo not shown) [Compound 391, 4-(hydroxy(phenyl)methyl)-2-(((2-(4-(2-ethoxyl)piperazin-1-yl)ethyl)amino)methylene) cyclopentane-1,3-dione], 15 to 100 µM.
Still for that read-out and setting: in the case of `O=C1CC(c2cc3[nH]ccc3cc2Br)CC(=O)C1=CNCCN1CCN(CCO)CC1` (stereo not shown) [Compound 392, 5-(5-bromo-1H -indol-6-yl)-2-(((2-(4-(2-ethoxyl)piperazin-1-yl)ethyl)amino)methylene) cyclohexane-1,3-dione] it was less than 3 µM; in that of `O=C1CC(c2c[nH]c3cccc(Cl)c23)CC(=O)C1=CNCCN1CCN(CCO)CC1` (stereo not shown) [Compound 394, 5-(4-chloro-1H-indol-3-yl)-2-(((2-(4-(2-ethoxyl)piperazin-1-yl)ethyl)amino)methylene) cyclohexane-1,3-dione], less than 3 µM; in that of `CCN(CC)CCCC(C)N/C=C1\C(=O)Nc2cc(Cl)ccc2C1=O` (stereo not shown) [Compound 395, 7-chloro-3-(((5-(diethylamino)penta-2-yl)amino)methylene) quinoline-2,4 (1H,3H)-dione], 3 to 15 µM.
`CN(C)CCNC=C1C(=O)CC(c2c(Cl)ccc(Cl)c2Cl)CC1=O` (stereo not shown) [Compound 397, 2-(((2-(dimethylamino)ethyl)amino)methylene)-5-(2,3,6-trichlorophenyl) cyclohexane-1,3-dione]: the IC50 is less than 3 µM.
For `CN(C)CCNC=C1C(=O)CC(c2c(Cl)ccc(F)c2F)CC1=O` (stereo not shown) [Compound 398, 5-(6-chloro-2,3-difluorophenyl)-2-(((2-(dimethylamino)ethyl)amino)methylene) cyclohexane-1,3-dione], the IC50 is less than 3 µM.
`O=C1CC(c2cccc(Cl)c2Cl)CC(=O)C1=CNCCN1CCN(CCO)CC1` (stereo not shown) [Compound 400, 5-(2,3-dichlorophenyl)-2-(((2-(4-(2-ethoxyl)piperazin-1-yl)ethyl)amino)methylene) cyclohexane-1,3-dione]: the IC50 was less than 3 µM.
The same measure, in the same setting: the figure for `CN(C)CCNC=C1C(=O)CC(c2ccc(F)c(F)c2F)CC1=O` (stereo not shown) [Compound 401, 2-(((2-(dimethylamino)ethyl)amino)methylene)-5-(2,3,4-trifluorophenyl) cyclohexane-1,3-dione] is less than 3 µM; for `CN(C)CCNC=C1C(=O)CC(c2c(F)c(F)cc(F)c2F)CC1=O` (stereo not shown) [Compound 402, 2-(((2-(dimethylamino)ethyl)amino)methylene)-5-(2,3,5,6-tetrafluorophenyl) cyclohexane-1,3-dione] it is less than 3 µM.
Same read-out and setting: the figure for `CC(F)(F)c1ccccc1C1CC(=O)C(=CNCCN2CCN(CCO)CC2)C(=O)C1` (stereo not shown) [Compound 404, 5-(2-(1,1-difluoroethyl)phenyl)-2-(((2-(4-(2-ethoxyl)piperazin-1-yl)ethyl)amino)methylene) cyclohexane-1,3-dione] is less than 3 µM.
With `O=C1CC(c2cccc3[nH]c(Br)c(Cl)c23)CC(=O)C1=CNCCN1CCN(CCO)CC1` (stereo not shown) [Compound 405, 5-(2-bromo-3-chloro-1H-indol-4-yl)-2-(((2-(4-(2-ethoxyl)piperazin-1-yl)ethyl)amino)methylene) cyclohexane-1-1,3-dione], the 50% inhibitory concentration (IC50) was less than 3 µM.
On the same count and under the same terms, in the case of `O=C1CC(c2ccccc2-c2c(Cl)cccc2Cl)CC(=O)C1=CNCCN1CCN(CCO)CC1` (stereo not shown) [Compound 406, 5-(2′,6′-dichloro-[1,1′-biphenyl]-2-yl)-2-(((2-(4-(2-ethoxyl)piperazin-1-yl)ethyl)amino)methylene) cyclohexane-1,3-dione] it was less than 3 µM; in that of `O=C1CC(=Cc2ccccc2)C(=O)C1=CNCCN1CCN(CCO)CC1` [Compound 407, 4-benzylidene-2-(((2-(4-(2-ethoxyl)piperazin-1-yl)ethyl)amino)methylene) cyclopentane-1,3-dione], 15 to 100 µM; in that of `O=C1CC(c2cccc(Cl)c2Cl)CC(=O)C1=CN1CCCCC1` (stereo not shown) [Compound 408, 5-(2,3-dichlorophenyl)-2-(piperidine-1-ylmethylene) cyclohexane-1,3-dione], 3 to 15 µM.
Still for that read-out and setting: in the case of `CN(C)CCNC=C1C(=O)CC(c2c(Br)ccc(F)c2F)CC1=O` (stereo not shown) [Compound 409] it was less than 3 µM.

The record behind these values is US11319303B2 (WIGEN BIOMEDICINE TECHNOLOGY (SHANGHAI) CO., LTD., priority 2017, dated 2022).
